Tested on: 186277-243-T-J2-PDC multi-cell spheroid viability
Test: Anticancer human tumor 186277-243-T-J2-PDC patient-derived colon adenocarcinoma cell line growth inhibition [PI3K]
Settings: for IC50: curve of first compound; for viability, T/C: stronger effect = lower value
How it was run: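 Stroma-containing spheroids: tumor line, pooled-donor HUVEC, hMSC. Treatments: targeted agents with PI3K inhibitors. Dosing: clinically relevant, half-log spacing, 10 microM ceiling without known Cmax. Read-out: cell viability.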
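Also: spheroids exposed to compounds for seven days before viability reading.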
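For viability, T/C in this document: 100% = DMSO vehicle control viability.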

Question: Which IC50 (second compound 0.0316 µM) does the source give for `CCN1CCN(Cc2ccc(Nc3ncc(F)c(-c4cc(F)c5nc(C)n(C(C)C)c5c4)n3)nc2)CC1` + Cc1nc(NC(=O)N2CCCC2C(N)=O)sc1-c1ccnc(C(C)(C)C(F)(F)F)c1 here?
Answer: The IC50 was > 1 µM.

Question: And the IC50 (second compound 0.1 µM)?
Answer: Its IC50 is > 1 µM.

Question: What about the IC50 (second compound 0.316 µM) of the same molecule?
Answer: Its IC50 is > 1 µM.

Question: What about the IC50 (second compound 1 µM) of the same molecule?
Answer: The IC50 was > 1 µM.

Question: And the IC50 (second compound 3.16 µM)?
Answer: The IC50 was < 0.00316 µM.

Question: What about the IC50 (second compound 10 µM) of the same molecule?
Answer: Its IC50 is < 0.00316 µM.

Question: And the viability, T/C (second compound 0.0316 µM, first compound 0.00316 µM)?
Answer: Its viability, T/C is 96.7%.

Question: What about the viability, T/C (second compound 0.0316 µM, first compound 0.01 µM) of the same molecule?
Answer: Its viability, T/C is 116%.

Question: What about the viability, T/C (second compound 0.0316 µM, first compound 0.0316 µM) of the same molecule?
Answer: The viability, T/C was 107%.

Question: What about the viability, T/C (second compound 0.0316 µM, first compound 0.1 µM) of the same molecule?
Answer: The viability, T/C was 139%.

Question: And the viability, T/C (second compound 0.0316 µM, first compound 0.316 µM)?
Answer: Its viability, T/C is 147%.

Question: What about the viability, T/C (second compound 0.0316 µM, first compound 1 µM) of the same molecule?
Answer: Its viability, T/C is 137%.

Question: And the viability, T/C (second compound 0.1 µM, first compound 0.00316 µM)?
Answer: Its viability, T/C is 97.4%.

Question: And the viability, T/C (second compound 0.1 µM, first compound 0.01 µM)?
Answer: Its viability, T/C is 93%.

Question: What about the viability, T/C (second compound 0.1 µM, first compound 0.0316 µM) of the same molecule?
Answer: The viability, T/C was 105%.

Question: And the viability, T/C (second compound 0.1 µM, first compound 0.1 µM)?
Answer: Its viability, T/C is 127%.

Question: And the viability, T/C (second compound 0.1 µM, first compound 0.316 µM)?
Answer: Its viability, T/C is 145%.

Question: And the viability, T/C (second compound 0.1 µM, first compound 1 µM)?
Answer: Its viability, T/C is 124%.

Question: What about the viability, T/C (second compound 0.316 µM, first compound 0.00316 µM) of the same molecule?
Answer: The viability, T/C was 97.9%.

Question: And the viability, T/C (second compound 0.316 µM, first compound 0.01 µM)?
Answer: The viability, T/C was 114%.

Question: What about the viability, T/C (second compound 0.316 µM, first compound 0.0316 µM) of the same molecule?
Answer: Its viability, T/C is 104%.

Question: What about the viability, T/C (second compound 0.316 µM, first compound 0.1 µM) of the same molecule?
Answer: The viability, T/C was 103%.

Question: And the viability, T/C (second compound 0.316 µM, first compound 0.316 µM)?
Answer: Its viability, T/C is 116%.

Question: What about the viability, T/C (second compound 0.316 µM, first compound 1 µM) of the same molecule?
Answer: Its viability, T/C is 92.5%.

Question: And the viability, T/C (second compound 1 µM, first compound 0.00316 µM)?
Answer: Its viability, T/C is 101%.

Question: And the viability, T/C (second compound 1 µM, first compound 0.01 µM)?
Answer: Its viability, T/C is 90.2%.

Question: What about the viability, T/C (second compound 1 µM, first compound 0.0316 µM) of the same molecule?
Answer: The viability, T/C was 77.9%.

Question: And the viability, T/C (second compound 1 µM, first compound 0.1 µM)?
Answer: The viability, T/C was 78.1%.

Question: What about the viability, T/C (second compound 1 µM, first compound 0.316 µM) of the same molecule?
Answer: The viability, T/C was 74%.

Question: What about the viability, T/C (second compound 1 µM, first compound 1 µM) of the same molecule?
Answer: The viability, T/C was 62.8%.

Question: What about the viability, T/C (second compound 3.16 µM, first compound 0.00316 µM) of the same molecule?
Answer: Its viability, T/C is 49.8%.

Question: And the viability, T/C (second compound 3.16 µM, first compound 0.01 µM)?
Answer: Its viability, T/C is 47.5%.

Question: What about the viability, T/C (second compound 3.16 µM, first compound 0.0316 µM) of the same molecule?
Answer: The viability, T/C was 42.1%.

Question: What about the viability, T/C (second compound 3.16 µM, first compound 0.1 µM) of the same molecule?
Answer: Its viability, T/C is 37%.

Question: And the viability, T/C (second compound 3.16 µM, first compound 0.316 µM)?
Answer: The viability, T/C was 41.4%.

Question: And the viability, T/C (second compound 3.16 µM, first compound 1 µM)?
Answer: Its viability, T/C is 28.6%.

Question: What about the viability, T/C (second compound 10 µM, first compound 0.00316 µM) of the same molecule?
Answer: The viability, T/C was 15.8%.

Question: What about the viability, T/C (second compound 10 µM, first compound 0.01 µM) of the same molecule?
Answer: The viability, T/C was 14.2%.

Question: And the viability, T/C (second compound 10 µM, first compound 0.0316 µM)?
Answer: Its viability, T/C is 10.7%.

Question: What about the viability, T/C (second compound 10 µM, first compound 0.1 µM) of the same molecule?
Answer: The viability, T/C was 9%.

Question: What about the viability, T/C (second compound 10 µM, first compound 0.316 µM) of the same molecule?
Answer: The viability, T/C was 12.5%.

Question: What about the viability, T/C (second compound 10 µM, first compound 1 µM) of the same molecule?
Answer: Its viability, T/C is 12%.
